Test results taken from paper PMC11310081, “Deep-learning-enabled antibiotic discovery through molecular de-extinction” (Nature Biomedical Engineering, 2024).
Values after ≈ are worked out from the molar mass of the structure shown. “Also recorded” adds a separate entry of the source. Peptide text beside a SMILES is read from it.

Legend:
[1] = tested on: 11 clinically relevant bacterial pathogens; assay type: cell-based; conditions: for Active or Inactive: Supplementary Dataset 2, against the 11 pathogens tested; for MIC (lowest MIC value in the antimicrobial activity assays): Supplementary Table 17, lowest MIC among the strains tested
In short: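 Antimicrobial activity is measured by broth microdilution against log-phase bacteria (OD600 0.3–0.5). Peptide range: 1 to 64 μmol l^−1.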

[2] = tested on: HEK293T cells; conditions: 24 h
In short: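 5,000 cells/well seeded a day ahead in DMEM with 10% FBS, then treated with peptides; viability by MTT (0.5 mg/ml, 4 h, 37 °C), formazan in acidic isopropanol read at 570 nm. Concentration causing 50% lysis from non-linear regression; three biological replicates, two technical each.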

[3] = tested on: A. baumannii ATCC 19606; experiment: Skin abscess infection mouse model; assay type: in vivo, CD-1 mice; conditions: for bacterial count, skin abscess (Panel 6b): CD-1 mice; for Anti-infective activity in skin abscess model, in words: single dose at MIC, compared with untreated control and polymyxin B, n = 6
Procedure: A. baumannii ATCC 19606 cells were grown in LB medium to an OD600 = 0.5. Cells were washed twice with sterile phosphate-buffered saline (PBS) (pH 7.4, 13,000 r.p.m. for 2 min) and resuspended to a final concentration of 10^6 (A. baumannii cells) colony-forming units per millilitre (c.f.u. ml^−1). Six-week-old female CD-1 mice from Charles River (stock number 18679700-022) were anaesthetized with isoflurane, and their backs were sterilized and shaved. A superficial linear skin abrasion was made with a needle to damage the stratum corneum and upper layer of the epidermis. An aliquot of 20 μl containing the bacterial load resuspended in PBS was inoculated over the scratched area. Two hours after the infection, peptides diluted in water at their MIC value were administered to the infected area, and the untreated mice were inoculated with the same volume of deionized water. Mice were euthanized, and the area of scarified skin was excised 2 days and 4 days post infection, homogenized using a bead beater for 20 min (25 Hz) and then serially diluted tenfold for quantification of colony-forming units. This quantitative method was used as it has been established to accurately reflect the number of bacteria present in a given infected area. MacConkey agar plates were used as A. baumannii colonies appear purple in this medium and can easily be distinguished from other strains. The experiments were performed with six mice per group. All experiments were performed blindly, and no animal subjects were excluded from the analysis. The skin abscess infection mouse model was approved by the University Laboratory Animal Resources from the University of Pennsylvania (protocol 806763). Statistical significance was determined using one-way analysis of variance (ANOVA) followed by Dunnett’s test in log10-transformed data to mitigate the effect of outliers; P values are presented for each group, with all groups being compared to the untreated control group.

[4] = A. baumannii ATCC 19606, day 2, replicate 1
[5] = A. baumannii ATCC 19606, day 2, replicate 2
[6] = A. baumannii ATCC 19606, day 2, replicate 3
[7] = A. baumannii ATCC 19606, day 2, replicate 4
[8] = A. baumannii ATCC 19606, day 2, replicate 5
[9] = A. baumannii ATCC 19606, day 2, replicate 6
[10] = A. baumannii ATCC 19606, day 4, replicate 1
[11] = A. baumannii ATCC 19606, day 4, replicate 2
[12] = A. baumannii ATCC 19606, day 4, replicate 3
[13] = A. baumannii ATCC 19606, day 4, replicate 4
[14] = A. baumannii ATCC 19606, day 4, replicate 5
[15] = A. baumannii ATCC 19606, day 4, replicate 6

| Structure (SMILES) | Active or Inactive [1] | MIC (lowest MIC value in the antimicrobial activity assays) [1] [µM] | CC50 [2] [µM] | bacterial count, skin abscess (Panel 6b) [3, 4] | bacterial count, skin abscess (Panel 6b) [3, 5] | bacterial count, skin abscess (Panel 6b) [3, 6] | bacterial count, skin abscess (Panel 6b) [3, 7] | bacterial count, skin abscess (Panel 6b) [3, 8] | bacterial count, skin abscess (Panel 6b) [3, 9] | bacterial count, skin abscess (Panel 6b) [3, 10] | bacterial count, skin abscess (Panel 6b) [3, 11] | bacterial count, skin abscess (Panel 6b) [3, 12] | bacterial count, skin abscess (Panel 6b) [3, 13] | bacterial count, skin abscess (Panel 6b) [3, 14] | bacterial count, skin abscess (Panel 6b) [3, 15] | Anti-infective activity in skin abscess model, in words [3] | TI (therapeutic index) [2] |
| --- | --- | --- | --- | --- | --- | --- | --- | --- | --- | --- | --- | --- | --- | --- | --- | --- | --- |
| CC[C@H](C)[C@H](N)C(=O)N[C@@H](Cc1ccccc1)C(=O)N[C@@H](CC(C)C)C(=O)N[C@@H](Cc1c[nH]cn1)C(=O)N[C@@H](CC(C)C)C(=O)N[C@@H](CCCCN)C(=O)N[C@H](C(=O)N[C@@H](CC(C)C)C(=O)N[C@@H](CCCCN)C(=O)N[C@H](C(=O)N[C@H](C(=O)N[C@@H](CCCNC(=N)N)C(=O)N[C@@H](CC(C)C)C(=O)N[C@@H](CC(C)C)C(=O)O)[C@@H](C)CC)[C@@H](C)CC)[C@@H](C)CC [Elephasin-2] (H-IFLHLKILKIIRLL-OH; N-terminus and C-terminus assumed) | Active | 1 (≈ 1.73 µg/mL) | > 128 | 200000 | 200000 | 8000000 | 4000000 | 200000 | 400000 | 40000 | 20000 | 800000 | 800000 | 200 | 200 | comparable to that of the widely used antibiotic polymyxin B; also recorded: inhibited the proliferation of the infection for up to 4 days after treatment; also recorded: cleared the infection in some of the mice | – |
| CC[C@H](C)[C@H](NC(=O)[C@H](CO)NC(=O)[C@H](CCCNC(=N)N)NC(=O)[C@H](C)NC(=O)[C@H](Cc1c[nH]cn1)NC(=O)[C@H](CC(C)C)NC(=O)[C@H](CS)NC(=O)[C@H](C)NC(=O)[C@@H](N)CCCNC(=N)N)C(=O)N[C@@H](C)C(=O)N[C@@H](CCCNC(=N)N)C(=O)N[C@@H](CC(C)C)C(=O)N[C@@H](Cc1c[nH]cn1)C(=O)N[C@@H](CCCCN)C(=O)N[C@@H](CCCNC(=N)N)C(=O)N[C@@H](Cc1c[nH]c2ccccc12)C(=O)N[C@@H](CCCNC(=N)N)C(=O)N1CCC[C@H]1C(=O)N[C@H](C(=O)N[C@@H](Cc1c[nH]cn1)C(=O)N[C@@H](CCC(N)=O)C(=O)NCC(=O)N[C@@H](CC(C)C)C(=O)NCC(=O)N[C@@H](CC(C)C)C(=O)N[C@@H](CCCCN)C(=O)O)C(C)C [Mammuthusin-2] (H-RACLHARSIARLHKRWRPVHQGLGLK-OH; N-terminus and C-terminus assumed) | Active | 32 (≈ 97.9 µg/mL) | > 128 | 600000 | 400000 | 800000 | 200000 | 4000000 | 1e+007 | 200000 | 200000 | 800000 | 1200000 | 20000 | 20000 | inhibited the proliferation of the infection for up to 4 days after treatment | > 4 |
| CC[C@H](C)[C@H](NC(=O)[C@@H](N)CC(C)C)C(=O)N[C@H](C(=O)N[C@@H](CS)C(=O)N[C@@H](Cc1ccccc1)C(=O)N[C@@H](Cc1ccccc1)C(=O)N[C@@H](CCCNC(=N)N)C(=O)N[C@@H](CCC(N)=O)C(=O)N[C@@H](CC(C)C)C(=O)N[C@@H](CCCCN)C(=O)N[C@@H](Cc1ccccc1)C(=O)N[C@@H](Cc1c[nH]cn1)C(=O)N[C@@H](Cc1ccccc1)C(=O)O)C(C)C [Megalocerin-1] (H-LIVCFFRQLKFHF-OH; N-terminus and C-terminus assumed) | Active | 8 (≈ 13.6 µg/mL) | > 128 | 800000 | 2000000 | 2000000 | 800000 | 600000 | 1000000 | 1200000 | 1000000 | 400000 | 400000 | 1000000 | 400000 | inhibited the proliferation of the infection for up to 4 days after treatment | > 16 |
| CC(C)C[C@H](NC(=O)CNC(=O)[C@H](CCCNC(=N)N)NC(=O)[C@H](CCCCN)NC(=O)[C@H](CCCNC(=N)N)NC(=O)[C@@H](N)CCCCN)C(=O)N[C@@H](CCCCN)C(=O)N[C@@H](CC(C)C)C(=O)N[C@@H](C)C(=O)N[C@H](C(=O)N[C@@H](C)C(=O)N[C@@H](CC(C)C)C(=O)N[C@@H](CO)C(=O)N[C@@H](CC(C)C)C(=O)N[C@@H](CC(N)=O)C(=O)N[C@@H](CC(N)=O)C(=O)N[C@@H](CCCCN)C(=O)N[C@@H](Cc1ccccc1)C(=O)O)[C@@H](C)O [Mylodonin-2] (H-KRKRGLKLATALSLNNKF-OH; N-terminus and C-terminus assumed) | Active | – | > 128 | 200000 | 200000 | 600000 | 200000 | 400000 | 400000 | 2000 | 2000 | 60000 | 80000 | 200 | 200 | comparable to that of the widely used antibiotic polymyxin B; also recorded: inhibited the proliferation of the infection for up to 4 days after treatment; also recorded: cleared the infection in some of the mice | – |
